According to patent publication US9370520B2, “Macrocyclic LRRK2 kinase inhibitors” (IPSEN PHARMA S.A.S., priority 2011, dated 2016):
Like-named read-outs stand apart in the source and are kept apart here.

Key:
[1] = not given; remark: listed apart in the source
truncated LRRK2 = molecular target: T1, truncated LRRK2 (Homo sapiens, UniProt Q5S007); test: radiometric protein kinase assay (33PanQinase Activity Assay, Protocol 2), truncated LRRK2; type: biochemical
T1 construct: a truncated LRRK2 enzyme (GST tagged LRRK2 of amino acids 970-2527); GST; purchased Invitrogen Corporation
Experimental: (§1) The inhibition of LRRK2 and LRRK1 kinase was assessed using LRRK2 and LRRK1 recombinant protein in an in vitro peptide-based kinase assay.
A radiometric protein kinase assay (^33PanQinase® Activity Assay) is used for measuring the kinase activity. All assays are performed in 96-well FlashPlates™ from Perkin Elmer in a 50 μl reaction volume. The reaction cocktail is pipetted in 4 steps in the following order: • 10 μl of non-radioactive ATP solution (in H2O) • 25 μl of assay buffer/[γ-^33P]-ATP mixture • 5 μl of test sample in 10% DMSO • 10 μl of enzyme/substrate mixture
The kinase is obtained from Invitrogen Corporation.
The reaction cocktails were incubated at 30° C. for 60 minutes. The reaction was stopped with 50 μl of 2% (v/v) H3PO4, plates were aspirated and washed two times with 200 μl 0.9% (w/v) NaCl. Incorporation of ^33Pi (counting of “cpm”) was determined with a microplate scintillation counter.

[2] = molecular target: T2, truncated LRRK2-G2019S (GST tagged LRRK2-G2019S of amino acids 970-2527) (Homo sapiens, UniProt Q5S007, G2019S); test: LRRKtide 32P-ATP peptide kinase assay (Protocol 1), truncated LRRK2-G2019S; type: biochemical; settings: 10 μM ATP, 200 μM lrrktide
T2 construct: GST tagged LRRK2-G2019S of amino acids 970-2527; GST
Experimental: as §1
(§2) LRRK2 protein is prepared as described in Daniëls et al. ((2011) J Neurochem 116, 304-315.). HEK293T cells are transfected with pCHMWS-3xflag-LRRK2 plasmid using polyethyleneimine and lysed after 48-72 hours in lysis buffer (Tris 20 mM pH 7.5, NaCl 150 mM, EDTA 1 mM, Triton 1%, Glycerol 10%, protease inhibitor cocktail). Lysates are cleared by centrifugation at 20,000 g for 10 minutes and incubated with normal mouse IgGs bound to agarose beads to remove proteins aspecifically binding to agarose or mouse IgGs. After removal of the IgG bead slurry, lysates are incubated for 3 to 18 hours with flagM2 bound to agarose beads. Beads are washed 4 times with wash buffer (Tris 25 mM pH 7.5, NaCl 400 mM, Triton 1%) and rinsed in kinase buffer (Tris-HCl 25 mM pH 7.5, 10 mM MgCl2, 2 mM dithiothreitol (DTT), 0.02% triton, 5 mM beta-glycerophosphate, 0.1 mM Na3VO4). Proteins are eluted in 5 volumes of kinase buffer containing 100 μg/ml 3xflag peptide. For assays using purified protein bound to affinity resin, affinity beads are resuspended in an equal volume of kinase buffer unless otherwise indicated. Purity and concentration are assessed by SDS-PAGE (3-8% tris-acetate SDS gel) and Coomassie Brilliant Blue staining or silver staining. Alternatively, a truncated LRRK2 enzyme (GST tagged LRRK2 of amino acids 970-2527) and a truncated LRRK2-G2019S (GST tagged LRRK2-G2019S of amino acids 970-2527) are used.
(§3) For Irrktide phosphorylation, recombinant LRRK2 is incubated with 6 μCi of 32P-ATP (3000 Ci/mmol), 200 μM Irrktide, 10 μM ATP and compound or solvent per 40 μl reaction for 30 minutes at 30° C. Compounds are tested at concentrations ranging from […]; the final amount of DMSO in the kinase reaction is 1%. Reactions are stopped and spotted to P81 phosphocellulose paper and washed 4×10 minutes in 75 mM phosphoric acid. Lrrktide phosphorylation levels are measured via autoradiography. Kinase assays are performed for each condition in triplicate.
(§4) LRRKtide phosphorylation levels are plotted vs. the log of the compound concentration and inhibition curves are fitted from which IC50 values are derived.

[3] = molecular target: T3, truncated LRRK2 (GST tagged LRRK2 of amino acids 970-2527) (Homo sapiens, UniProt Q5S007); test: LRRKtide 32P-ATP peptide kinase assay (Protocol 1), truncated LRRK2; type: biochemical; settings: 10 μM ATP, 200 μM lrrktide
T3 construct: GST tagged LRRK2 of amino acids 970-2527; GST
Experimental: as §1, §2, §3, §4

full-length LRRK2 = molecular target: T4, full-length LRRK2 (Homo sapiens, UniProt Q5S007); test: LRRKtide 32P-ATP peptide kinase assay (Protocol 1), full-length LRRK2; type: biochemical; settings: 10 μM ATP, 200 μM lrrktide
T4 construct: full-length; made in house; host or cells: HEK293T
Experimental: as §1, §2
as §3, with “triplicate. […]” for “triplicate.”

[4] = Protocol 2, ATP 0.3 μM, substrate GSK3(14-27), read-out: IC50 for truncated LRRK2

T2 sequence (Q5S007 970-2527 G2019S): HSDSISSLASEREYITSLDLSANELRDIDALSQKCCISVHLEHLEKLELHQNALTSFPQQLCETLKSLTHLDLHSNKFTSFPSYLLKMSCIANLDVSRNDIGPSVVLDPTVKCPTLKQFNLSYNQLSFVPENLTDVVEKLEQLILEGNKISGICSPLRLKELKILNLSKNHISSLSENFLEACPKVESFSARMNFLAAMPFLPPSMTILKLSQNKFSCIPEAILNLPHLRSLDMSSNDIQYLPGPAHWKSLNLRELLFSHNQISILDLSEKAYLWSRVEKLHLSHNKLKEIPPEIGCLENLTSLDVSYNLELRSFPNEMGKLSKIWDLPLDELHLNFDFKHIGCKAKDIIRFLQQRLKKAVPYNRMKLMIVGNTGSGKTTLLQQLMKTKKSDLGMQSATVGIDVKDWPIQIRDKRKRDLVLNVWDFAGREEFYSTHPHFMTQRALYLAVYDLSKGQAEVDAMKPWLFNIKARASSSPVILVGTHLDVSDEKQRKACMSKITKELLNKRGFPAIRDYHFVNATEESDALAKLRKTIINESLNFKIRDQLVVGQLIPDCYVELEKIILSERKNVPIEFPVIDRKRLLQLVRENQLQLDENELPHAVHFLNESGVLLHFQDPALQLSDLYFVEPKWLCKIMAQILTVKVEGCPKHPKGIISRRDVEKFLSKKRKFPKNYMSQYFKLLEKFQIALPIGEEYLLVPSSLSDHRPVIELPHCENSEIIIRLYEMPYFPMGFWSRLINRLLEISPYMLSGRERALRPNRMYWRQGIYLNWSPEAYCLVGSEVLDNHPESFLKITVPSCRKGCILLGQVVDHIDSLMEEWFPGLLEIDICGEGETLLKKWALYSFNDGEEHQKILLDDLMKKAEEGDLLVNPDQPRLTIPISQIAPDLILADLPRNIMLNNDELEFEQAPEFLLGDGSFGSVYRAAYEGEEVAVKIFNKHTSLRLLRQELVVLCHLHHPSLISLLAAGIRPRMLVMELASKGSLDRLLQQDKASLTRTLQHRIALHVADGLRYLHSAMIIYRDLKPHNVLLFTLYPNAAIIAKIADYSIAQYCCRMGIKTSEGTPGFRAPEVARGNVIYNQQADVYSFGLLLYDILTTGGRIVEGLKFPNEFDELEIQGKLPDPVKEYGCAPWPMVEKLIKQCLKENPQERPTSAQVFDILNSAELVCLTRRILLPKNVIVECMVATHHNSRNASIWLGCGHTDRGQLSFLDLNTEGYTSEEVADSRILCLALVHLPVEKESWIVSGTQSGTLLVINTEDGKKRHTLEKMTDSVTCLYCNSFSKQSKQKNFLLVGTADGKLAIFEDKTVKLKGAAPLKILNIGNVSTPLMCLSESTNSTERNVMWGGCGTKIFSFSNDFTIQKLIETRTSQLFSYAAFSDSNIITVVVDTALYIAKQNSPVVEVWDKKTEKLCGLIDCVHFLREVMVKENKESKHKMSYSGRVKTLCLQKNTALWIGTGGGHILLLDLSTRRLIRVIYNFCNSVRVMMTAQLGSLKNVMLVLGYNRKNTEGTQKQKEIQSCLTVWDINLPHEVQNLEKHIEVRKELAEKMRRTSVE
T1 sequence (Q5S007 970-2527): as the sequence (Q5S007 970-2527 G2019S) above, with S1050G counted along it
T3 sequence (Q5S007 970-2527): as the sequence (Q5S007 970-2527 G2019S) above, with S1050G counted along it
T4 sequence (Q5S007 whole entry): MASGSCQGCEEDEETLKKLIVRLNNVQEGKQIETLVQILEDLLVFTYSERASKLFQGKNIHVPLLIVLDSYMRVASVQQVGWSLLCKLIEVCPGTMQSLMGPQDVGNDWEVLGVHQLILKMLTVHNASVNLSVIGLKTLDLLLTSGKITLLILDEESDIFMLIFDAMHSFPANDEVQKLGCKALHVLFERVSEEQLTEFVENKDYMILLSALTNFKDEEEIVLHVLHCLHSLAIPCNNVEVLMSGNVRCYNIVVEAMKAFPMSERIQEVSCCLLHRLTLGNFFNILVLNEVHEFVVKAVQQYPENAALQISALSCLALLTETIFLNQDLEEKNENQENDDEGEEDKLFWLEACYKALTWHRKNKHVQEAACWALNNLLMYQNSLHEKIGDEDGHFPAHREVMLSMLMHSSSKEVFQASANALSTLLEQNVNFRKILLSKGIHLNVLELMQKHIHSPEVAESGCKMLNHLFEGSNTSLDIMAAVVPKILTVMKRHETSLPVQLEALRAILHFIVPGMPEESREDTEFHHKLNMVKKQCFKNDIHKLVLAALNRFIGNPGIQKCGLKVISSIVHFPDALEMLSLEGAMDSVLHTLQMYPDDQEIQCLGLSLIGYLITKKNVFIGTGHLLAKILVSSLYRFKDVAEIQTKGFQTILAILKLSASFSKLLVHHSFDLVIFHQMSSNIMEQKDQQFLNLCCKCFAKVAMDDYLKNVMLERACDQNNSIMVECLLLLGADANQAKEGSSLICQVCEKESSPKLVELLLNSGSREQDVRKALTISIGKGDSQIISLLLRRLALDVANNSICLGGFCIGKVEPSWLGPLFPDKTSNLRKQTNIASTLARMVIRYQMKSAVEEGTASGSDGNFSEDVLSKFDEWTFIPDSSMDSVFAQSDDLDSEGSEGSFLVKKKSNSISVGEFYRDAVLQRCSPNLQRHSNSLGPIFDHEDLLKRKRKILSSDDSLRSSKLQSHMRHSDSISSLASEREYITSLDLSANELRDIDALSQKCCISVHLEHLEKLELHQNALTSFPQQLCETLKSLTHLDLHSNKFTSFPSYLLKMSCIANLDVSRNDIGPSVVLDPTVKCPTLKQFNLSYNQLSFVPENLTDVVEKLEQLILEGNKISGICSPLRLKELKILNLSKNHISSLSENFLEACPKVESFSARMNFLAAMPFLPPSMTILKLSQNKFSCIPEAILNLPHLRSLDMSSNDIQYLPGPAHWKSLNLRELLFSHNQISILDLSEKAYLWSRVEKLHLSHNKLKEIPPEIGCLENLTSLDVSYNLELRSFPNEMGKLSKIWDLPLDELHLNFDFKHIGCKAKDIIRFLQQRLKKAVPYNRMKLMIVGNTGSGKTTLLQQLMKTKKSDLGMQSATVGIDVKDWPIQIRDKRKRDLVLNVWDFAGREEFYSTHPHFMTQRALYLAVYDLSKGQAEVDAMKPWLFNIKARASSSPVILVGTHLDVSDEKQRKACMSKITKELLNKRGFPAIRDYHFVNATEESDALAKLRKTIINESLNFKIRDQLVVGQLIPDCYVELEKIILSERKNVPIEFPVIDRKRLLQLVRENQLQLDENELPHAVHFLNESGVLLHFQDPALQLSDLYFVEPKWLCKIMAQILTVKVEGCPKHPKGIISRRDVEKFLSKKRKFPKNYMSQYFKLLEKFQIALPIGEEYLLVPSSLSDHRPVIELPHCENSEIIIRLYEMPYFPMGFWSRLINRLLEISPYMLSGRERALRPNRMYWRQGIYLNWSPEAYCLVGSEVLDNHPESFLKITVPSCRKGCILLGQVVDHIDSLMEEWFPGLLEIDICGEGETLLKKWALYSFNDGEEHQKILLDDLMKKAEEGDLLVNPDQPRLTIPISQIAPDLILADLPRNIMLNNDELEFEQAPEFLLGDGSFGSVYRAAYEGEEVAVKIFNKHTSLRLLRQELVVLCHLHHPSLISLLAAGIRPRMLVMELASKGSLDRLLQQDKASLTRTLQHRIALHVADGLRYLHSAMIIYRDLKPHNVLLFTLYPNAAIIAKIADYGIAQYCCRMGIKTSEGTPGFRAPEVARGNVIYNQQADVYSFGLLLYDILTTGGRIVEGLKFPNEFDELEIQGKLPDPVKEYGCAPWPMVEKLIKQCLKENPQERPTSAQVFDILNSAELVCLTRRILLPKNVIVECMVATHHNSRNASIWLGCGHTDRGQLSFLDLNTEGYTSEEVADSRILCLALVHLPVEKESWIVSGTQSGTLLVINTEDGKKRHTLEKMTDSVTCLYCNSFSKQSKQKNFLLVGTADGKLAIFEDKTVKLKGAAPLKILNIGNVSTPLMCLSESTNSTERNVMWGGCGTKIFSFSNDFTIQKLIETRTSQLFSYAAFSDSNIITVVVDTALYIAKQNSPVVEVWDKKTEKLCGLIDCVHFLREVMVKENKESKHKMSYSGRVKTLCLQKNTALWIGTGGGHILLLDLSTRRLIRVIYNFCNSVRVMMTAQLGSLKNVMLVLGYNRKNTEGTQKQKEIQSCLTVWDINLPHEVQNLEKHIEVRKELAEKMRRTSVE

Row | Compound | IC50 (truncated LRRK2; [4]) [µM] | also measured
1 | O=C1CNc2ccn3ncc(c3n2)-c2cccc(c2)OCCCCN1 | – | ring closure, yield of all isomers (from NCCCCOc1cccc(-c2cnn3ccc(NCC(=O)O)nc23)c1, amide bond, HBTU/DIPEA, DMF, 10.0 mM, 25.0 °C, 2.0 h): 19%; melting point [1]: > 300 °C
2 | COC(=O)c1cc2cc(c1)-c1cnn3ccc(nc13)N(C(=O)OC(C)(C)C)CCN(C(=O)OC(C)(C)C)CCO2 | – | ring closure, yield of all isomers (from COC(=O)c1cc(O)cc(-c2cnn3ccc(N(CCN(CCO)C(=O)OC(C)(C)C)C(=O)OC(C)(C)C)nc23)c1, ether bond, DIAD/PPh3, toluene, 8.7 mM, 90.0 °C, 3.5 h): 89%
3 | O=C1CCNc2ccn3ncc(c3n2)-c2cc(F)cc(c2)OCCN1 | – | ring closure, yield of all isomers (from NCCOc1cc(F)cc(-c2cnn3ccc(NCCC(=O)O)nc23)c1, amide bond, HBTU/DIPEA, DMF, 28.6 mM, 25.0 °C, 1.0 h): 18%
4 | CC(C)C(=O)N1CCNCc2cccc(c2)-c2cnn3ccc(nc23)NCC1 [Compound 53] | > 1 | –
5 | CCCC(=O)N1CCNCc2cccc(c2)-c2cnn3ccc(nc23)NCC1 [Compound 55] | > 1 | –
6 | CN(C)CCC(=O)N1CCNCc2cccc(c2)-c2cnn3ccc(nc23)NCC1 [Compound 56] | > 1 | –
7 | O=C1CNc2ccn3ncc(c3n2)-c2cccc(c2)OCCCN1 [Compound 57] | > 1 | –
8 | CN(C)CCN1CCN(C)c2ccn3ncc(c3n2)-c2cccc(c2)OCC1=O [Compound 58] | > 1 | –
9 | O=C1CCNCc2cccc(c2)-c2cnn3ccc(nc23)NCCN1 [Compound 59] | > 1 | –
10 | CN1CC(=O)NCCNc2ccn3ncc(c3n2)-c2cccc1c2 [Compound 61] | > 1 | –
11 | C[C@H]1NCc2cccc(c2)-c2cnn3ccc(nc23)NCCNC1=O [Compound 62] | > 1 | –
12 | C[C@@H]1NCc2cccc(c2)-c2cnn3ccc(nc23)NCCNC1=O [Compound 64] | > 1 | –
13 | CN1CCCOc2cccc(c2)-c2cnn3ccc(nc23)NCCCC1=O [Compound 65] | > 1 | –
14 | O=C1CN(C(=O)C2CC2)CCNc2ccn3ncc(c3n2)-c2cccc(c2)N1 [Compound 67] | > 1 | –
15 | O=C1CCC(=O)Nc2cccc(c2)-c2cnn3ccc(nc23)OCCCN1 [Compound 68] | > 1 | melting point [1]: 295.1 °C
16 | NC(=O)c1cc2cc(c1)-c1cnn3ccc(nc13)NCCN(C(=O)C1CC1)CCO2 [Compound 69] | > 1 | melting point [1]: > 300 °C
17 | CCC(=O)N1CCNc2ccn3ncc(c3n2)-c2cccc(c2)N(C)CC1 [Compound 71] | – | melting point [1]: > 300 °C
18 | O=C1CNc2ccn3ncc(c3n2)-c2cccc(c2)OCCOCCN1 [Compound 72] | – | ring closure, yield of all isomers (from NCCOCCOc1cccc(-c2cnn3ccc(NCC(=O)O)nc23)c1, amide bond, HBTU/DIPEA, DMF, 10.0 mM, 25.0 °C, 2.0 h): 30%; melting point [1]: 272.5 °C
19 | O=C(C1CC1)N1CCNc2ccn3ncc(c3n2)-c2cccc(c2)OCC1 [Example 1] | – | melting point [1]: > 300 °C; IC50 [2]: < 0.1 µM; IC50 [3]: < 0.1 µM
20 | O=C1CCCOc2cccc(c2)-c2cnn3ccc(nc23)NCCN1 [Example 2] | – | IC50 (full-length LRRK2): < 0.1 µM; melting point [1]: > 300 °C; IC50 [2]: 0.1 to 1 µM; IC50 [3]: 0.1 to 1 µM
21 | O=C(CCO)N1CCNc2ccn3ncc(c3n2)-c2cccc(c2)OCC1 [Example 4] | – | melting point [1]: > 300 °C; IC50 [2]: < 0.1 µM; IC50 [3]: < 0.1 µM
22 | O=S1(=O)CCCOc2cccc(c2)-c2cnn3ccc(nc23)NCCN1 [Example 8] | – | melting point [1]: 269 °C
23 | CC(C)N1CCNc2ccn3ncc(c3n2)-c2cccc(c2)OCC1=O [Example 44] | > 1 | –
24 | CN(C)CCN1CCNc2ccn3ncc(c3n2)-c2cccc(c2)OCC1=O [Example 46] | > 1 | –
25 | CN(C)CCN1CCN(C(=O)C2CC2)CCOc2cccc(c2)-c2cnn3ccc1nc23 [Example 48] | 0.1 to 1 | –
26 | O=C1CNc2cccc(c2)-c2cnn3ccc(nc23)NCCN1 [Example 49] | 0.1 to 1 | –
27 | O=C(CF)N1CCNc2ccn3ncc(c3n2)-c2cccc(c2)OCC1 [Example 50] | – | IC50 (truncated LRRK2): < 0.1 µM
28 | O=C(C1CC1)N1CCNCc2cccc(c2)-c2cnn3ccc(nc23)NCC1 [Example 51] | 0.1 to 1 | –
29 | CC(=O)N1CCNCc2cccc(c2)-c2cnn3ccc(nc23)NCC1 [Example 52] | 0.1 to 1 | –

The next lines start with results.

Row | IC50 (truncated LRRK2; [4]) [µM] | Compound | also measured
30 | 0.1 to 1 | COCCC(=O)N1CCNCc2cccc(c2)-c2cnn3ccc(nc23)NCC1 [Compound 54] | –
31 | < 0.1 | CN1CCC(=O)NCCNc2ccn3ncc(c3n2)-c2cccc(c2)C1 [Compound 60] | –
32 | 0.1 to 1 | O=C(C1CC1)N1CCOc2cccc(c2)-c2cnn3ccc(nc23)N(CCO)CC1 [Compound 63] | –
33 | 0.1 to 1 | COc1ccc2cc1OCCN(C(=O)C1CC1)CCNc1ccn3ncc-2c3n1 [Compound 66] | –
34 | < 0.1 | C=CC(=O)N1CCNc2ccn3ncc(c3n2)-c2cccc(c2)OCC1 [Compound 70] | melting point [1]: > 300 °C
35 | < 0.1 | O=C(CCF)N1CCNc2ccn3ncc(c3n2)-c2cccc(c2)OCC1 [Example 10] | –
36 | < 0.1 | CN(C)C(=O)N1CCNc2ccn3ncc(c3n2)-c2cccc(c2)OCC1 [Example 11] | –
37 | 0.1 to 1 | CCOC(=O)N1CCCNc2ccn3ncc(c3n2)-c2cccc(c2)OCC1 [Example 12] | –
38 | < 0.1 | NC(=O)CN1CCNc2ccn3ncc(c3n2)-c2cccc(c2)OCC1 [Example 13] | –
39 | 0.1 to 1 | CS(=O)(=O)N1CCNc2ccn3ncc(c3n2)-c2cccc(c2)OCC1 [Example 14] | –
40 | < 0.1 | CCC(=O)N1CCNc2cccc(c2)-c2cnn3ccc(nc23)NCC1 [Example 17] | –
41 | 0.1 to 1 | COCCC(=O)N1CCCN(C)c2cccc(c2)-c2cnn3ccc(nc23)NCC1 [Example 19] | –
42 | 0.1 to 1 | O=C(N1CCNc2ccn3ncc(c3n2)-c2cccc(c2)OCC1)N1CCN(CCF)CC1 [Example 29] | –
43 | 0.1 to 1 | COCCC(=O)N1CCNc2ccn3ncc(c3n2)-c2cccc(c2)OCC1 [Example 31] | –
44 | < 0.1 | O=C(c1ccc[nH]1)N1CCNc2ccn3ncc(c3n2)-c2cccc(c2)OCC1 [Example 32] | –
45 | < 0.1 | O=C(c1cocn1)N1CCNc2ccn3ncc(c3n2)-c2cccc(c2)OCC1 [Example 33] | –
46 | 0.1 to 1 | O=S(=O)(C1CC1)N1CCNc2ccn3ncc(c3n2)-c2cccc(c2)OCC1 [Example 34] | –
47 | < 0.1 | O=C(C1CC1)N1CCNc2cccc(c2)-c2cnn3ccc(nc23)NCC1 [Example 35] | –
48 | 0.1 to 1 | O=C(CN1CCOCC1)N1CCNc2ccn3ncc(c3n2)-c2cccc(c2)OCC1 [Example 36] | –
49 | < 0.1 | CNCC(=O)N1CCNc2ccn3ncc(c3n2)-c2cccc(c2)OCC1 [Example 37] | –
50 | < 0.1 | NC(=O)N1CCNc2ccn3ncc(c3n2)-c2cccc(c2)OCC1 [Example 38] | –
51 | 0.1 to 1 | CN1CCN(CC(=O)N2CCNc3ccn4ncc(c4n3)-c3cccc(c3)OCC2)CC1 [Example 39] | –
52 | < 0.1 | O=C(CCN1CCCC1)N1CCNc2ccn3ncc(c3n2)-c2cccc(c2)OCC1 [Example 40] | –
53 | < 0.1 | CN(C)CCC(=O)N1CCNc2ccn3ncc(c3n2)-c2cccc(c2)OCC1 [Example 41] | –
54 | < 0.1 | N#Cc1ccc2cc1OCCN(C(=O)C1CC1)CCNc1ccn3ncc-2c3n1 [Example 42] | –
55 | 0.1 to 1 | O=C1CCCNc2ccn3ncc(c3n2)-c2cccc(c2)OCCCN1 [Example 43] | –
56 | 0.1 to 1 | O=C1NCCN(C(=O)C2CC2)CCNc2ccn3ncc(c3n2)-c2cccc1c2 [Example 45] | –
57 | 0.1 to 1 | CN1CCNc2ccn3ncc(c3n2)-c2cccc(c2)OCCCS1(=O)=O [Example 47] | –
